Several values for one entry are separate records, joined by “and”; a condition that tells them apart may be missing. Identical values can stand only once.

The target in the test is T1, chymotrypsin-like activity of the 20S proteasome (Homo sapiens, UniProt P20618+P28074).
T1 construct: purified human placenta 20S proteasome; tissue Diabetes Forschungsinstitut, Düsseldorf, Germany; host or cells: human placenta
As to the kind of experiment: Inhibition of the chymotrypsin-like activity of the 20S proteasome (Suc-LLVY-AMC hydrolysis). Format: biochemical. As to conditions: purified human placenta 20S proteasome, Suc-LLVY-AMC substrate, read-out: IC50 [μM] (results of one or two experiments). From the text: It is based on the hydrolysis of the fluorogenic peptide Suc-LLVY-AMC (Succinyl-leucine-leucine-vatine-tyrosine-7-amino-4-methyl-coumarin), which is cleaved exclusively at the Y-AMC bond by the 20S proteasome. Hydrolysis of this peptide is accompanied by an increase in fluorescence intensity (λex (excitation wavelength): 355 nm; μem (emission wavelength): 460 nm) due to release of the […] that accompanies diffusion apart of the hydrolysis product Suc-LLVY.
2 μl of a 1 mM solution of a test compound in DMSO (dimethylsulfoxide, 20 μM final concentration in the well) are preincubated for 60 min at room temperature in black 96-well microtiter plates together with a mixture of 1 μl purified human placenta 20S proteasome (Diabetes Forschungsinstitut, DÜsseldorf, Germany; about 100 ng proteasome, depending on the proteasome preparation) and 47 μl buffer-Ca (5 mM CaCl2, 20 mM Tris/HCl (Tris-(hydroxymethyl)-amino-methane hydrochloride) pH 8.0). 3 μl of a 2.67 mM solution of Suc-LLVY-AMC (Bachem, Switzerland) in DMSO (80 μM final concentration in the well) and 47 μl buffer-Ca are mixed and added. The resulting mixture is incubated for 3-24 h at 37° C. If desired, proteolysis of the substrate can be stopped by addition of 50 μl stop solution (100 mM monochloroacetic acid, 130 mM NaOH, 100 mM acetic acid, pH=4.3). The fluorescence is monitored with a FLUOROSKAN ASCENT™ microtiter plate reader.
For each measurement series two control experiments are carried out: • 1.) 0% value: 2 μl DMSO are used in the above described assay instead of 2 μl of a 1 mM solution of a test compound in DMSO and 48 μl buffer-Ca instead of a mixture of 47 μl buffer-Ca and 1 μl purified proteasome. • 2.) 100% value: in the above described assay 2 μl DMSO are used instead of 2 μl of a 1 mM solution of the test compound in DMSO. Calculation [formula]
The IC50 value is defined as that concentration of a compound at which the remaining activity is 50% compared to the […].

For `CC(C)C[C@H](NC(=O)[C@@H](NC(=O)[C@H](Cc1ccc(OCc2ccccc2)cc1)NC(=O)Cc1cccc(OCc2ccccc2)c1)C(C)C)B(O)O` [Example 30, (R)-1-((S)-2{(S)-3-(4-Benzyloxy-phenyl)-2-[2-(3-benzyloxy-phenyl)-acetylamino]-propionylamino}-3-methyl-butyrylamino)-3-methyl-butylboronic acid], the IC50 came to 0.0059 µM.

Consider `COc1ccc(C[C@H](NC(=O)CCc2ccccc2)C(=O)N[C@H](C(=O)N[C@@H](CC(C)C)B2O[C@@H]3C[C@@H]4C[C@@H](C4(C)C)[C@]3(C)O2)C(C)C)c(OC)c1OC` [Example 5, (S)-3-Methyl-N-[(R)-3-methyl-1-((1S,2S,6R,8S)-2,9,9-trimethyl-3,5-dioxa-4-bora-tricyclo[6.1.1.0^2,6]dec-4-yl)-butyl]-2-[(S)-2-(3-phenyl-propionyl-amino)-3-(2,3,4-trimethoxyphenyl)-propionylamino]-butyramide], for which the IC50 was 0.0013 µM and 0.0006 µM.

Turning to `COc1cc(C[C@H](Nc2cccc(-c3ccccc3)c2)C(=O)N[C@H](C(=O)N[C@@H](CC(C)C)B(O)O)C(C)C)cc(OC)c1OC` [Example 2, (R)-1-{(S)-2-[(S)-2-(Biphenyl-3-ylamino)-3-(3,4,5-trimethoxy-phenyl)-propionylamino]-3-methyl-butyrylamino}-3-methyl-butylboronic acid], the IC50 is 0.0028 µM and 0.0021 µM.

For “(R)-1-{(S)-2-[(S)-2-(Biphenyl-3-ylamino)-3-(3,4,5-trimethoxy-phenyl)-propionylamino]-4-methyl-pentanoylamino}-3-methyl-butylboronic acid [Example 34]”, the half-inhibitory concentration (IC50) is 0.0013 µM.

With `CC(C)C[C@H](NC(=O)[C@@H](NC(=O)[C@H](Cc1ccc(OCc2ccccc2)cc1)NC(=O)Cc1cccc(OCc2ccccc2)c1)C(C)C)B1O[C@@H]2C[C@@H]3C[C@@H](C3(C)C)[C@]2(C)O1` [Example 29, (S)-2-{(S)-3-(4-Benzyloxy-phenyl)-2-[2-(3-benzyloxy-phenyl)-acetylamino]-propionylamino}-3-methyl-N-[(R)-3-methyl-1-((1S,2S,6R,8S)-2,9,9-trimethyl-3,5-dioxa-4-bora-tricyclo[6.1.1.0^2,6]dec-4-yl)-butyl]-butyramide], the IC50 was determined as 0.004 µM.

`COc1cc(C[C@H](Nc2cccc(-c3ccccc3)c2)C(=O)N[C@H](C(=O)NC(CC(C)C)B(O)O)C(C)C)cc(OC)c1OC` (stereo partly drawn) [Example 24, 1-{(S)-2-[(S)-2-(Biphenyl-3-ylamino)-3-(3,4,5-trimethoxy-phenyl)-propionylamino]-3-methyl-butyrylamino}-3-methyl-butylboronic acid]: the IC50 was 0.0021 µM.

With `COc1cc(C[C@H](Nc2cccc(-c3ccccc3)c2)C(=O)N[C@@H](C)C(=O)N[C@@H](CC(C)C)B2O[C@@H]3C[C@@H]4C[C@@H](C4(C)C)[C@]3(C)O2)cc(OC)c1OC` [Example 37, (S)-2-(Biphenyl-3-ylamino)-N-{(S)-1-[(R)-3-methyl-1-((1S,2S,6R,8S)-2,9,9-trimethyl-3,5-dioxa-4-bora-tricyclo[6.1.1.0^2,6]dec-4-yl)-butylcarbamoyl]-ethyl}-3-(3,4,5-trimethoxy-phenyl)-propionamide], the IC50 amounted to 0.0013 µM.

In the case of `COc1cc(C[C@H](Nc2cccc(-c3ccccc3)c2)C(=O)N[C@H](C(=O)N[C@@H](Cc2ccccc2)B(O)O)C(C)C)cc(OC)c1OC` [Example 50, (R)-1-{(S)-2-[(S)-2-(Biphenyl-3-ylamino)-3-(3,4,5-trimethoxy-phenyl)-propionylamino]-3-methyl-butyrylamino}-2-phenyl-ethylboronic acid], the IC50 worked out at 0.0023 µM.

As for `COc1ccc(C[C@H](NC(=O)CCc2ccccc2)C(=O)N[C@@H](C)C(=O)N[C@@H](CC(C)C)B2O[C@@H]3C[C@@H]4C[C@@H](C4(C)C)[C@]3(C)O2)c(OC)c1OC` [Example 47, (S)-N-{(S)-1-[(R)-3-Methyl-1-((1S,2S,6R,8S)-2,9,9-trimethyl-3,5-dioxa-4-bora-tricyclo[6.1.1.0^2,6]dec-4-yl)-butylcarbamoyl]-ethyl}-2-(3-phenyl-propionylamino)-3-(2.3.4 trimethoxy-phenyl)-propionamide], the IC50 stood at 0.0008 µM.

`COc1cc(C[C@H](Nc2cccc(C(C)C)c2)C(=O)N[C@H](C(=O)N[C@@H](CC(C)C)B(O)O)C(C)C)cc(OC)c1OC` [Example 12, (R)-1-{(S)-2-[(S)-2-(3-Isopropyl-phenylamino)-3-(3,4,5-trimethoxy-phenyl)-propionylamino]-3-methyl-butyrylamino}-3-methyl-butylboronic acid]: the IC50 turned out to be 0.0038 µM.

For the compound `COc1cc(C[C@H](Nc2cccc(-c3ccccc3)c2)C(=O)N[C@@H](CC(C)C)C(=O)N[C@@H](CC(C)C)B(O)O)cc(OC)c1OC` [Example 32, (R)-1-{(S)-2-[(S)-2-(Biphenyl-3-ylamino)-3-(3,4,5-trimethoxy-phenyl)-propionylamino]-4-methyl-pentanoylamino}-3-methyl-butylboronic acid], the IC50 was found to be 0.0037 µM.

For the compound `COc1ccc(C[C@H](Nc2cccc(-c3ccccc3)c2)C(=O)N[C@H](C(=O)N[C@@H](CC(C)C)B2O[C@@H]3C[C@@H]4C[C@@H](C4(C)C)[C@]3(C)O2)C(C)C)cc1` [Example 7, (S)-2-[(S)-2-(Biphenyl-3-ylamino)-3-(4-methoxy-phenyl)-propionylamino]-3-methyl-N-[(R)-3-methyl-1-((1S,2S,6R,8S)-2,9,9-trimethyl-3,5-dioxa-4-bora-tricyclo[6.1.1.0^2,6]dec-4-yl)-butyl]-butyramide], the IC50 was 0.0029 µM and 0.0032 µM.

On to `COc1ccc(C[C@H](Nc2cccc(-c3ccccc3)c2)C(=O)N[C@@H](C)C(=O)N[C@@H](CC(C)C)B2O[C@@H]3C[C@@H]4C[C@@H](C4(C)C)[C@]3(C)O2)cc1OC` [Example 43, (S)-2-(Biphenyl-3-ylamino)-3-(3,4-dimethoxy-phenyl)-N-{(S)-1-[(R)3-methyl-1-((1S,2S,6R,8S)-2,9,9-trimethyl-3,5-dioxa-4-bora-tricyclo[6.1.1.0^2,6]dec-4-yl)-butylcarbamoyl]-ethyl}-propionamide], for which the IC50 was found to be 0.0018 µM.

With `COc1ccc(C[C@H](Nc2cccc(-c3ccccc3)c2)C(=O)N[C@@H](C)C(=O)N[C@@H](CC(C)C)B2O[C@@H]3C[C@@H]4C[C@@H](C4(C)C)[C@]3(C)O2)cc1` [Example 41, (S)-2-(Biphenyl-3-ylamino)-3-(4-methoxy-phenyl)-N-{(S)-1-[(R)-3-methyl-1-((1S,2S,6R,8S)-2,9,9-trimethyl-3,5-dioxa-4-bora-tricyclo[6.1.1.0^2,6]dec-4-yl)-butylcarbamoyl]-ethyl}-propionamide], the IC50 came to 0.0012 µM.

Turning to `COc1ccc(C[C@H](Nc2cccc(-c3ccccc3)c2)C(=O)N[C@@H](C)C(=O)N[C@@H](CC(C)C)B(O)O)c(OC)c1OC` [Example 40, (R)-1-{(S)-2-[(S)-2-(Biphenyl-3-ylamino)-3-(2,3,4-trimethoxy-phenyl)-propionylamino]-propionylamino}-3-methyl-butylboronic acid], the IC50 is 0.0022 µM.

As for `COc1ccc(C[C@H](NC(=O)Cc2cccc(Oc3ccccc3)c2)C(=O)N[C@H](C(=O)N[C@@H](CC(C)C)B(O)O)C(C)C)c(OC)c1OC` [Example 4], the IC50 is 0.0019 µM and 0.0015 µM.

In the case of `COc1ccc(C[C@H](Nc2cccc(-c3ccccc3)c2)C(=O)N[C@@H](C)C(=O)N[C@@H](CC(C)C)B2O[C@@H]3C[C@@H]4C[C@@H](C4(C)C)[C@]3(C)O2)c(OC)c1OC` [Example 39, (S)-2-(Biphenyl-3-ylamino)-N-{(S)-1-[(R)-3-methyl-1-((1S,2S,6R,8S)-2,9,9-trimethyl-3,5-dioxa-4-bora-tricyclo[6.1.1.0^2,6]dec-4-yl)-butylcarbamoyl]-ethyl}-3-(2,3,4-trimethoxy-phenyl)-propionamide], the IC50 stood at 0.0019 µM.

Turning to `COc1ccc(C[C@H](Nc2cccc(-c3ccccc3)c2)C(=O)N[C@@H](CC(C)C)C(=O)N[C@@H](CC(C)C)B(O)O)cc1` [Example 36, (R)-1-{(S)-2-[(S)-2-(Biphenyl-3-ylamino)-3-(4-methoxy-phenyl)-propionylamino]-4-methyl-pentanoylamino}-3-methyl-butylboronic acid], the IC50 was found to be 0.0023 µM.

`COc1ccc(C[C@H](Nc2cccc(-c3ccccc3)c2)C(=O)N[C@H](C(=O)N[C@@H](CC(C)C)B2O[C@@H]3C[C@@H]4C[C@@H](C4(C)C)[C@]3(C)O2)C(C)C)c(OC)c1OC` [Example 15, (S)-2-[(S)-2-(Biphenyl-3-ylamino)-3-(2,3,4-trimethoxy-phenyl)-propionylamino]-3-methyl-N-[(R)-3-methyl-1-((1S,2S,6R,8S)-2,9,9-trimethyl-3,5-dioxa-4-bora-tricyclo[6.1.1.0^2,6]dec-4-yl)-butyl]-butyramide]: the IC50 was 0.0071 µM.

What is called IC50 is the concentration that inhibits the measured activity by half.

(Values after patent US6933290B2, “2-{N-(2-amino-3-(heteroaryl or aryl)propionyl)-aminoacyl}-amino}-alkylboronic acid derivatives” (Novartis AG, priority 2001, dated 2005).)
